Test results from patent EP0194793A2, “9-Acyl tylosin derivatives” (Omura, Satoshi, priority 1985, dated 1986).
In brackets after ≈: the same amount, converted by molar mass. Like-named read-outs stand apart in the source and are kept apart here.

What was measured:
[1] = tested on: Klebsiella pneumoniae KB13(PCI 602); test: Minimum inhibitory concentration, nutrient agar dilution; format: cell-based; conditions: for MIC: read-out: Minimum Inhibitory Concentrations
Method: (§1) Experiment 1: Minimum Inhibitory Concentration (µg/ml)
(§2) The tylosin derivatives obtained in Examples 1 through 9 were tested for their minimum inhibitory concentrations against gram-positive and gram-negative bacteria. The tests were conducted in conventional manner by inoculating varying concentrations of the test sample on a nutrient agar test medium and incubating at 37°C for 18-20 hours. The concentrations of the test samples inhibiting the bacteria growth were measured in µg per ml as a minimum inhibitory concentration.

[2] = tested on: Micrococcus luteus KB212 (ATCC 9341); test: as above; format: cell-based
Method: as §1, §2

[3] = tested on: Escherichia coli KB213 (NIHJ); test: as above; format: cell-based; conditions: 37°C, 18-20 hours; for MIC: read-out: Minimum Inhibitory Concentrations
Method: as §1, §2

[4] = tested on: Bacillus subtilis KB-143(IFO 3001); test: as above; format: cell-based
Method: as §1, §2

[5] = tested on: Staphylococcus aureus KB-210 (ATC 65380); test: as above; format: cell-based; conditions: for MIC: read-out: Minimum Inhibitory Concentrations
Method: as §1, §2

S. pyrogenes C203 = test: In vivo activity in infected mice
Method: Experiment 2: In vivo Activity
The compounds obtained in Examples 2 and 4 were separately administered subcutaneously or orally to mice infected with S. pyrogenes C203. The in vivo activity was measured as ED50 (mg/kg x 2).

[6] = Klebsiella pneumoniae KB13(PCI 602), nutrient agar, 37°C, 18-20 hours
[7] = Micrococcus luteus KB212 (ATCC 9341), nutrient agar, 37°C, 18-20 hours
[8] = Bacillus subtilis KB-143(IFO 3001), nutrient agar, 37°C, 18-20 hours
[9] = Staphylococcus aureus KB-210 (ATC 65380), nutrient agar, 37°C, 18-20 hours

Compound	Minimum Inhibitory Concentrations [1, 6]	Minimum Inhibitory Concentrations [2, 7]	Minimum Inhibitory Concentrations [3]	Minimum Inhibitory Concentrations [4, 8]	Minimum Inhibitory Concentrations [5, 9]	further results
9-0-Acetyl-9-dihydrodemycarosyltylosin [Example 5]	>50 µg/mL	0.2 µg/mL	>50 µg/mL	1.56 µg/mL	1.56 µg/mL	
9-0-Benzoyl-9-dihydrotylosin [Example 4]	>100 µg/mL	<0.1 µg/mL	>100 µg/mL	0.2 µg/mL	0.78 µg/mL	
9-0-Acetyl-9-dihydrotylosin [Example 1]	100 µg/mL	<0.1 µg/mL	>100 µg/mL	0.2 µg/mL	1.56 µg/mL	
9-0-Butyryl-9-dihydrotylosin [Example 3]	100 µg/mL	<0.1 µg/mL	100 µg/mL	0.4 µg/mL	1.56 µg/mL	
9-0-Benzoyl-9-dihydrodemycarosyltylosin [Example 8]	>100 µg/mL	0.2 µg/mL	>100 µg/mL	1.56 µg/mL	1.56 µg/mL	
9-0-Butyryl-9-dihydrodemycarosyltylosin [Example 7]	>50 µg/mL	0.2 µg/mL	>50 µg/mL	1.56 µg/mL	1.56 µg/mL	
CCC1OC(=O)CC(O)C(C)C(OC2OC(C)C(O)C(N(C)C)C2O)C(CC=O)CC(C)C(=O)C=CC(C)=CC1COC1OC(C)C(O)C(OC)C1OC (stereo not drawn) [Detyl, Demycarosyltylosin, reference compound]						MIC [1, 6]: 100 µg/mL (≈ 130 µM); MIC ([2]; ATCC9341, Micrococcus luteus KB212 (ATCC 9341), nutrient agar, 37°C, 18-20 hours, read-out: Minimum Inhibitory Concentrations): 0.2 µg/mL (≈ 0.259 µM); MIC [3]: > 100 µg/mL; MIC ([4]; IFO3001, Bacillus subtilis KB-143(IFO 3001), nutrient agar, 37°C, 18-20 hours, read-out: Minimum Inhibitory Concentrations): 3.12 µg/mL (≈ 4.04 µM); MIC [5, 9]: 3.12 µg/mL (≈ 4.04 µM)
9-0-Propionyl-9-dihydrotylosin [Example 2]	>100 µg/mL	<0.1 µg/mL	>100 µg/mL	0.2 µg/mL	0.78 µg/mL	ED50 (S. pyrogenes C203; Oral, mice infected with S. pyrogenes C203): 12.5 mg/kg x 2; ED50 (S. pyrogenes C203; Subcutaneous, mice infected with S. pyrogenes C203): 2.5 mg/kg x 2
9-0-Propionyl-9-dihydrodemycarosyltylosin [Example 6]	>100 µg/mL	0.2 µg/mL	>100 µg/mL	1.56 µg/mL	1.56 µg/mL	
CC[C@H]1OC(=O)C[C@@H](O)[C@H](C)[C@@H](O[C@@H]2O[C@H](C)[C@@H](O[C@H]3C[C@@](C)(O)[C@@H](O)[C@H](C)O3)[C@H](N(C)C)[C@H]2O)[C@@H](CC=O)C[C@@H](C)C(=O)/C=C/C(C)=C/[C@@H]1CO[C@@H]1O[C@H](C)[C@@H](O)[C@@H](OC)[C@H]1OC [Tyl, Tylosin]						MIC ([1]; Klebsiella pneumoniae): > 100 µg/mL; MIC ([2]; Micrococcus luteus, ATCC9341, read-out: Minimum Inhibitory Concentrations): 0.2 µg/mL (≈ 0.218 µM); MIC [3]: > 100 µg/mL; MIC ([4]; Bacillus subtilis, IFO3001, read-out: Minimum Inhibitory Concentrations): 0.78 µg/mL (≈ 0.851 µM); MIC ([5]; Staphylococcus aureus): 1.56 µg/mL (≈ 1.7 µM); ED50 (S. pyrogenes C203; Mus musculus, po): 50 mg/kg; ED50 (S. pyrogenes C203; Mus musculus, sc): 1 mg/kg
